Source: US9744250B2, “Chemical model of a neurodegenerative disease, method for preparation and uses of same” (priority 2012, dated 2017)

How the values were obtained:
[1] = test system: caspase-9; test: Caspase-9 activity (Ac-LEHD-AFC cleavage) in SH-SY5Y cells; format: cell-based, human; settings: 1 mM, 96 h
Description: (§1) Measurement of the activities of the various caspases is based on the ability of the caspases to cleave specific fluorescent substrates: Ac-DEVD-AFC for caspase-3, Ac-IETD-AFC for caspase-8, or Ac-LEHD-AFC for caspase-9. SH-SY5Y neuronal cells were incubated in 48-well plates with either furosemide pyridinium (1 mM) for 96 h or with MPP+ (1 mM) for 6 h, then 24 h of incubation with no MPP+. After incubation, the cells were trypsinized, then rinsed with PBS and counted, then harvested in 100 μl of buffer containing 30 mM HEPES, 0.3 mM EDTA, 100 mM NaCl, 0.15% Triton X-100, and 10 mM DTT. The cell extract was then incubated for 1 hour at 37° C. with the specific substrate (100 μM) in a 96-well plate. Fluorescence was measured at λex400 nm and λem505 nm in a fluorescence detection plate reader (TECAN Infinite M1000) (Yue et al., supra). The results were expressed as percentages relative to the measured activity of cells cultured under the same conditions and not subjected to any treatment.

[2] = test system: caspase-3; test: Caspase-3 activity (Ac-DEVD-AFC cleavage) in SH-SY5Y cells; format: cell-based, human; settings: 1 mM, 96 h
Description: as §1

[3] = test system: mice; test: Lethality of 7-day oral administration in mice; format: in vivo, mouse; settings: daily dose of 20 mg/kg for seven days
Description: (§2) Swiss mice were divided into two groups of five animals (experimental and control). The experiments were performed independently two times. The mice of the experimental group were exposed to furosemide pyridinium for 7 days at a daily dose of 20 mg/kg. The furosemide pyridinium was administered orally in the drinking water. The mice were sacrificed 30 days after the end of the furosemide pyridinium treatment.

[4] = test system: complex I; test: Complex I activity of mitochondria from striata of exposed mice; format: in vivo, mouse; settings: 20 mg/kg/day oral 7 days, 30 days after end of exposure
Description: The kinetics of the oxidation reaction of NADH into NAD+ at 340 nm at 37° C. were continuously monitored by spectrophotometry using a JASCO V-530 spectrophotometer or a TECAN 1000M Infinite plate reader, set to a wavelength of 340 nm for 3 min. The amount of mitochondria extract to obtain the maximum activity introduced into the reaction volume was 100 μg with the spectrophotometer and 10 μg with the reader. Each manipulation must be done at substrate saturation, which is an NADH concentration of 160 μM. Mitochondria previously divided into multiple aliquots were frozen, then quickly thawed a few minutes before use. In a first step, the mitochondria extract was introduced into the hypotonic buffer (50 mM KH2PO4 and 10 mM MgCl2, pH=7.2 at 37° C.) for 2 minutes to break open the mitochondrial membranes and access the respiratory chain (Chretien et al., Biochem Biophys Res Commun, 2003, 301(1):222-4). […] The slope of the kinetics was then measured. […] The inhibition percentage was then calculated. […]
For each mouse sacrificed, cortex and striatum samples had been previously collected and processed to extract the mitochondria. The activity of the mitochondrial respiratory chain and of complex I were determined as described in Part B above, in the “Materials and Methods” subsection (without addition of furosemide pyridinium or an analog to the medium).

[5] = test system: α-synuclein phosphorylated at serine 129; test: Immunohistochemistry of Ser129-phosphorylated alpha-synuclein in exposed mice; format: in vivo, mouse; settings: 20 mg/kg/day oral 7 days, 30 days after end of exposure
Description: as §2
For this, the mice were anesthetized with pentobarbital (50 mg/Kg), then an intracardiac infusion of NaCl (0.9%) was administered, followed by fixation by an infusion of 4% paraformaldehyde in 0.1M phosphate buffer, pH 7.2. The brain was removed, placed in NaCl (0.9%) at 4° C., and frozen in Tissue Tek immersed in a cold isopentane bath. Coronal sections of eight microns were obtained using a cryostat and were processed for immunohistochemistry (labeling the tyrosine hydroxylase and the Ser129-phosphorylated alpha-synuclein).

[6] = test system: mitochondrial respiratory chain; test: Respiratory chain activity of mitochondria from striata of exposed mice; format: in vivo, mouse; settings: 20 mg/kg/day oral 7 days, 30 days after end of exposure
Description: Added to the polarography chamber (Hansatech) were 30 μl of mitochondria solution (0.2 mg), 460 μL of respiration buffer, 5 μl of test compound solution (meaning MPP+ or furosemide pyridinium) (or its solubilizing solvent). Then 5 μl of a 10/10 mM mixture of malate-pyruvate substrates were added, which allowed the respiratory chain to function (stage 2) starting from complex I. After about 40 seconds, 5 μl of 200 μM ADP were added, resulting in an increase in oxygen consumption as the ADP activated complex V (stage 3). Once all the ADP was consumed, the oxygen consumption returned to an initial stage (stage 4) that is equivalent to stage 2. The effect of the compound on respiratory control was evaluated (ratio of stage 3 to 4), which corresponds to the coupling of the respiratory chain, or in other words the ATP synthesis at complex V and the oxygen consumption due to complexes I to IV. The results are expressed as percentages of the value measured for mitochondria not treated with the test compound (but treated with the solubilizing solvent).
as §2, with “The mice were sacrificed 30 days after the end of the furosemide pyridinium treatment.” left out

[7] = test system: caspase-8; test: Caspase-8 activity (Ac-IETD-AFC cleavage) in SH-SY5Y cells; format: cell-based, human; settings: 1 mM, 96 h
Description: as §1

[8] = test system: respiratory chain complexes II-V of rat cerebral cortex mitochondria; test: Respiratory control after induction of complex II by succinate and inhibition of complex I by rotenone; format: biochemical; settings: 1 mM, succinate
Description: The animal was then decapitated in order to collect from the brain either the cortex or the striatum, which were quickly placed in a Potter Elvejhem® containing 6 ml of extraction buffer at 4° C. (250 mM sucrose, 40 mM KCl, 2 mM EGTA, lmg/ml BSA, 20 mM Tris, pH=7.2). This mixture was homogenized to break open the cells and release the mitochondria and then centrifuged at 2000 g for 8 minutes to remove the larger membrane debris and the nuclei from the pellet. The supernatant was then recovered and centrifuged at 13,000 g for 11 minutes. The supernatant was discarded while the pellet containing a mitochondria-rich fraction was resuspended in 500 μl of respiration buffer at 4° C. (300 mM D-mannitol, 10 mM KCl, 10 mM KH2PO4, 5 mM MgCl2, pH=7.2). […]
Added to the polarography chamber (Hansatech) were 30 μl of mitochondria solution (0.2 mg), 460 μL of respiration buffer, 5 μl of test compound solution (meaning MPP+ or furosemide pyridinium) (or its solubilizing solvent). […] The effect of the compound on respiratory control was evaluated (ratio of stage 3 to 4), which corresponds to the coupling of the respiratory chain, or in other words the ATP synthesis at complex V and the oxygen consumption due to complexes I to IV. The results are expressed as percentages of the value measured for mitochondria not treated with the test compound (but treated with the solubilizing solvent). […]

NS(=O)(=O)c1cc(C(=O)[O-])c(-[n+]2cccc(O)c2)cc1Cl [furosemide pyridinium, 4-chloro-2-(3-hydroxypyridinium-1-yl)-5-sulfamoylbenzoate]
enzymatic activity of caspase-9 compared to untreated cells [1]: 170%
activity of caspase-3 compared to untreated cells [2]: 179%
lethality [3]: not lethal
decrease in activity of complex I of striatal mitochondria vs control animals [4]: 49%
α-synuclein phosphorylated at serine 129 in the cortexes ([5]; cortex): no increase
α-synuclein phosphorylated at serine 129 in the striata ([5]; striatum): sharp increase
decrease in respiratory control of striatal mitochondria vs control animals [6]: 28%
change in caspase-8 activity [7]: did not induce significant changes
respiratory control of cortex mitochondria after induction by complex II [8]: not modified
